Experimental findings from ChEMBL document CHEMBL6134856, “Rapid Response Antimicrobial Peptide Design Strategy Driven by Meta-Learning for Emerging Drug-Resistant Pathogens” (J Med Chem, 2025) are described below.

For data set [1], the system named is Acinetobacter baumannii. Description: Antimicrobial activity against SAM/CTX/AK/CRO/CN drugs-resistant Acinetobacter baumannii 0101 assessed as inhibition of bacterial growth incubated for approximately 18 hrs by resazurin dye based broth microdilution assay. The data set is classed as functional. On the technique in general: The colour change of resazurin is a common sign of viable cells or microbes.

Data set [2] can be described thus: Hemolytic activity in Sprague-Dawley rat erythrocytes incubated for 1 hr by multifunctional microplate reader analysis. The following applies: for HC50 at 1 h: Sprague-Dawley, erythrocytes; for HC5: erythrocyte, 1 h. The data set is classed as toxicity, cell-based, Erythrocyte.
For data set [3], the system named is Acinetobacter baumannii. Description: Antimicrobial activity against CTX/CRO/CN drugs-resistant Acinetobacter baumannii 0214 assessed as inhibition of bacterial growth incubated for approximately 18 hrs by resazurin dye based broth microdilution assay. The class given is functional.
In the next data set the test system is Candida albicans. Description: Antimicrobial activity against Candida albicans ATCC 14053 assessed as inhibition of bacterial growth incubated for approximately 18 hrs by resazurin dye based broth microdilution assay. The data set is classed as functional.
Data set [4] deals with Acinetobacter baumannii. In words: Antimicrobial activity against SAM/CTX/CRO/CN drugs-resistant Acinetobacter baumannii 0320 assessed as inhibition of bacterial growth incubated for approximately 18 hrs by resazurin dye based broth microdilution assay. The data set is classed as functional.
For data set [5], the system named is Acinetobacter baumannii. In words: Antimicrobial activity against SAM/CTX/AK/CRO/CN drugs-resistant Acinetobacter baumannii 0004 assessed as inhibition of bacterial growth incubated for approximately 18 hrs by resazurin dye based broth microdilution assay. The data set is classed as functional.
Another data set has as its system Staphylococcus aureus. Description: Antimicrobial activity against Staphylococcus aureus ATCC 25923 assessed as inhibition of bacterial growth incubated for approximately 18 hrs by resazurin dye based broth microdilution assay. The data set is classed as functional.
The subject of data set [6] is Acinetobacter baumannii. In words: Antimicrobial activity against SAM-resistant Acinetobacter baumannii 0413 assessed as inhibition of bacterial growth incubated for approximately 18 hrs by resazurin dye based broth microdilution assay. The class given is functional.
Data set [7] relates to Acinetobacter baumannii. Description: Antimicrobial activity against CTX/AK/CRO drugs-resistant Acinetobacter baumannii 0110 assessed as inhibition of bacterial growth incubated for approximately 18 hrs by resazurin dye based broth microdilution assay. The class given is functional.

A word on the MIC: it is the smallest concentration in the dilution series that meets the test's criterion for growth inhibition. As a reminder, the HC50 is the concentration that lyses half of the red blood cells. Read a high HC50 as weaker haemolysis. Consider H-AWKAKLKRLAIAWKR-OH, for which the MIC in the data set with Acinetobacter baumannii [1] is 8 µM; with Acinetobacter baumannii [3], 4 µM; in the data set on Candida albicans, 8 µM; in the data set with Acinetobacter baumannii [4], 4 µM; with Acinetobacter baumannii [5] it was 4 µM; in the data set on Staphylococcus aureus, greater than 32 µM. Besides, the minimum inhibitory concentration (MIC) amounted to 4 µM in the data set on Acinetobacter baumannii [6] and 8 µM in the data set with Acinetobacter baumannii [7]. Further, the HC50 at 1 h in data set [2] was greater than 256 µM. Also, the HC5 in data set [2] was greater than 256 µM.

In [2], H-FWKKVFKWIWRVLHNFG-OH displayed a concentration for 50% haemolysis (HC50) at 1 h of 12.6 µM and an HC5 of 1.28 µM. In addition, in the data set on Acinetobacter baumannii [5], the MIC was 8 µM.

With H-GLWKRWKKVLWGAKNKI-OH, the minimum inhibitory concentration (MIC) in the data set on Acinetobacter baumannii [1] was determined as 4 µM; in the data set with Acinetobacter baumannii [3], 4 µM; in the data set with Candida albicans, 8 µM; in the data set on Acinetobacter baumannii [4] it was 2 µM; in the data set with Acinetobacter baumannii [5], 2 µM; in the data set on Staphylococcus aureus, 16 µM. The MIC was found to be 2 µM in the data set with Acinetobacter baumannii [6] and 4 µM with Acinetobacter baumannii [7]. In data set [2], this substance had an HC50 at 1 h greater than 256 µM. The substance also came in with an HC5 in [2] greater than 256 µM.

H-GWAKRLVQRLADWLRKF-OH yielded an HC50 at 1 h in data set [2] of 43.9 µM. In addition, the HC5 in [2] turned out to be 7.22 µM. Also, the MIC in the data set on Candida albicans was greater than 32 µM; in the data set on Acinetobacter baumannii [5], 2 µM; in the data set with Staphylococcus aureus, 8 µM.

Take H-IWLAVWKGLLKRWLH-OH: the concentration for 50% haemolysis (HC50) at 1 h in [2] is 10.5 µM. Also, the HC5 in data set [2] was 1.17 µM. For the same substance, the minimal inhibitory concentration (MIC) in the data set on Candida albicans was 16 µM; in the data set on Acinetobacter baumannii [5], 2 µM; with Staphylococcus aureus, 2 µM.

For H-KIRWLLYWIRRKRL-OH, the minimal inhibitory concentration (MIC) with Acinetobacter baumannii [5] stood at 16 µM.

With H-KLKRWLVWLIRKLW-OH, the MIC in the data set on Acinetobacter baumannii [5] was determined as 16 µM.

On to H-KRIWRKILWWIKWR-OH, for which the minimum inhibitory concentration (MIC) in the data set on Acinetobacter baumannii [5] is 8 µM.

The substance H-KWARRLVYLIANYWKKR-OH yielded an HC50 at 1 h in data set [2] of 117 µM. The substance further showed an HC5 in [2] of 14.63 µM. For the same substance, the figures for the minimal inhibitory concentration (MIC) in the data set on Candida albicans, with Acinetobacter baumannii [5] and in the data set on Staphylococcus aureus were greater than 32 µM, 2 µM and greater than 32 µM, respectively.

Turning to H-KWFKKLPKILHKLAKKW-OH, the MIC in the data set on Acinetobacter baumannii [1] is 2 µM; in the data set on Acinetobacter baumannii [3], 4 µM; in the data set with Candida albicans, greater than 32 µM; with Acinetobacter baumannii [4] it was 2 µM; in the data set with Acinetobacter baumannii [5], 2 µM; in the data set with Staphylococcus aureus, 2 µM. Besides, the MIC with Acinetobacter baumannii [6] and in the data set with Acinetobacter baumannii [7] was 2 µM each time. Besides, the HC50 at 1 h in data set [2] came out at 294 µM. Also, the HC5 in data set [2] came to 38.67 µM.

In data set [2], H-KWKIFKRIVGRILRYLR-OH displayed an HC50 at 1 h of 15.7 µM. In [2], this substance gave an HC5 of 1.47 µM. Further, the MIC in the data set on Candida albicans is greater than 32 µM; in the data set on Acinetobacter baumannii [5] it was 4 µM; with Staphylococcus aureus, 8 µM.

H-LWKILKKIWRVLKNWN-OH came in with an HC50 at 1 h in data set [2] of 35.9 µM. This substance also displayed an HC5 in data set [2] of 7.59 µM. In addition, the values for the MIC in the data set on Candida albicans, in the data set on Acinetobacter baumannii [5] and with Staphylococcus aureus were 32 µM, 4 µM and 8 µM, respectively.

For the substance H-RIRFKWRWWMRIRLKWY-OH, in data set [2], the concentration for 50% haemolysis (HC50) at 1 h is greater than 256 µM. The HC5 in data set [2] is greater than 256 µM. The minimum inhibitory concentration (MIC) in the data set with Candida albicans was greater than 32 µM; in the data set on Acinetobacter baumannii [5], 16 µM; with Staphylococcus aureus, greater than 32 µM.

Take H-RIWVLIYRWYRKWY-OH: in the data set with Acinetobacter baumannii [5], the MIC worked out at 32 µM.

Take H-RLIKIWWIYRRKWR-OH: the MIC in the data set on Acinetobacter baumannii [5] came to 128 µM.

H-RLWKIWLVWIRWRNQK-OH had an HC50 at 1 h in data set [2] of 330 µM. The same substance registered an HC5 in data set [2] of 27.41 µM. The MIC was greater than 32 µM with Candida albicans, 16 µM with Acinetobacter baumannii [5] and greater than 32 µM in the data set on Staphylococcus aureus.

For H-RLWKIWWKIWRVLI-OH, the MIC with Acinetobacter baumannii [5] was found to be 16 µM.

Consider H-RQIKIWFQNRRWGLQLK-OH, for which the MIC with Acinetobacter baumannii [1] was 16 µM; in the data set on Acinetobacter baumannii [3], 16 µM; in the data set on Candida albicans, greater than 32 µM; in the data set on Acinetobacter baumannii [4], 16 µM; with Acinetobacter baumannii [5] it was 16 µM; in the data set on Staphylococcus aureus, greater than 32 µM. Further, the minimum inhibitory concentration (MIC) came out at 8 µM in the data set with Acinetobacter baumannii [6] and 16 µM in the data set with Acinetobacter baumannii [7]. This substance also had a concentration for 50% haemolysis (HC50) at 1 h in data set [2] greater than 256 µM. Further, the HC5 in [2] was greater than 256 µM.

For the substance H-RRRLILWILWRRLR-OH, in [2], the HC50 at 1 h amounted to 166 µM. This substance registered an HC5 in data set [2] of 10.09 µM. The MIC in the data set with Candida albicans was greater than 32 µM; in the data set on Acinetobacter baumannii [5], 4 µM; in the data set with Staphylococcus aureus, 8 µM.

On to H-RWRKIWFLWRYKIW-OH, for which the MIC in the data set with Acinetobacter baumannii [5] amounted to 128 µM.

The substance H-VLAANRLVRRLAQKIAR-OH showed an HC50 at 1 h in [2] greater than 256 µM. Besides, in [2], the HC5 was greater than 256 µM. For the same substance, the minimal inhibitory concentration (MIC) in the data set with Candida albicans was 16 µM; with Acinetobacter baumannii [5] it was 32 µM; in the data set on Staphylococcus aureus, greater than 32 µM.

In data set [2], H-WFKKLLKLALKWAKYA-OH had a 50% haemolytic concentration (HC50) at 1 h of 13.1 µM. The same substance came in with an HC5 in [2] of 1.46 µM. Moreover, the values for the minimum inhibitory concentration (MIC) in the data set with Candida albicans, with Acinetobacter baumannii [5] and in the data set with Staphylococcus aureus were greater than 32 µM, 4 µM and 2 µM, respectively.
